For one data set, the system named is NB4 cells. In words: MTS cell viability, TET1-low control cell line. It counts as cell-based. The note with it: up to 500 nM, 48 hrs. The method, then: (§1) FIG. 1. […] Cell viability was analyzed by MTS 48 hours post-treatment. […] TET1 expression levels were detected by qPCR 48 hrs post-treatment. […] TET1 expression levels (e) and cell viability (f) were detected 24 hrs post-treatment. *, P<0.05, two-tailed t-test. MM6, MONOMAC-6. Error bar indicates SD of triplicate experiments.
MONOMAC-6, THP-1, KOCL-48, KASUMI-1, ML-2 and NB4 cells were purchased from ATCC (Manassas, Va.), and cultured as described previously (Jiang, X., et al. Blockade of miR-150 Maturation by MLL-Fusion/MYC/LIN-28 Is Required for MLL-Associated Leukemia. Cancer Cell 22, 524-535 (2012); Li, Z., et al. miR-196b directly targets both HOXA9/MEIS1 oncogenes and FAS tumour suppressor in MLL-rearranged leukaemia. (Li, Z., et al., miR-196b directly targets both HOXA9/MEISV oncogenes and FAS tumour suppressor in MLL-rearranged leukaemia, Nat Commun 2:688 (2012)). All cell lines were tested for mycoplasma contamination yearly using a PCR Mycoplasma Test Kit (PromoKine) and were proven to be mycoplasma negative. All cell lines were authenticated through STR profiling yearly. […]

Another data set relates to global 5hmC level. The experiment in a line: Global 5hmC level (5hmC labeling and dot-blotting). The note with it: for global 5hmC levels: MONOMAC-6 cells. Format: cell-based. The procedure: as §1
The 5-hydroxymethylcytosine (5-hmC) labeling reactions and 5hmC dot blotting were performed as described previously (Huang, H., et al. TET1 plays an essential oncogenic role in MLL-rearranged leukemia. Proc Natl Acad Sci USA 110, 11994-11999 (2013)). Briefly, 3 jig sonicated genomic DNA (100-500 bp) fragments were incubated in solution containing 50 mM Hepes buffer (pH 7.9), 25 mM MgCl2, 100 jiM UDP-6-N3-Glc, and 1 jiM beta-glucosyltransferase (f3-GT) for 1 hr at 37° C. The CLICK was performed with addition of 150 jiM dibenzocyclooctyne modified biotin into the purified DNA solution, and the reaction mixture was incubated for 2 hrs at 37° C. Six hundred nanograms of labeled genomic DNA samples were spotted on an Amersham Hybond-N+ membrane (GE Healthcare, Little Chalfont, UK). DNA was fixed to the membrane by Stratagene UV Stratalinker 2400 (auto-crosslink). The membrane was then blocked with 5% BSA and incubated with Avidin-HRP (1:40,000) (Bio-Rad, Hercules, Calif.), and then visualized by enhanced chemiluminescence.

Another data set has as its system FLT3-ITD/NPM1^mut AML. In words: FLT3-ITD/NPM1mut AML secondary BMT mouse model. It counts as in vivo, mice. The note with it: 2.5 mg/kg i.p. once per day for 10 days; for median survival: control 21 days. The method, then: FIG. 4. […] (a) Structures of NSC-370284 and UC-514321. […] Cells were treated with drugs at indicated doses. Cell viability was detected by MTS 48 hrs post-treatment. Error bar indicates SD of triplicate experiments. […] Secondary BMT recipient mice were transplanted with primary leukemic BM cells with MLL-AF9 (f) or AML-ETO9a (g). […] Kaplan-Meier curves are shown. The P values were determined by log-rank test. […] Secondary BMT recipient mice were transplanted with primary leukemic BM cells with MLL-AF10 or FLT3-ITD/NPM1^mut. […] Kaplan-Meier curves are shown. The P values were determined by log-rank test. (j) Wright-Giemsa staining of mouse PB and BM, or H&E staining of mouse spleen and liver of MLL-AF9 AML secondary BMT recipients with or without drug treatment.
Secondary mouse BMT was carried out as described previously. […] For the “5+3” treatment, AraC (Cytarabine, Bedford Laboratories) and DNR (Daunorubicin, Sigma-Aldrich) were reconstituted with PBS, filtered, and stored in aliquots at −20° C. The “5+3” therapy regimen consists of five consecutive daily doses of 50 mg/kg AraC along with 3 mg/kg DNR daily during the first three days of treatment. Drugs were delivered by tail vein and intraperitoneal injection. Weights were taken daily during treatment and doses were recalculated to ensure the mice received a consistent dose of 50 mg/kg AraC and 3 mg/kg DNR every treatment.

Data set [1] relates to normal hematopoietic stem/progenitor cells (c-Kit+ BM cells). In words: MTS and apoptosis assays in normal HSPCs. The note with it: 50 nM; 3 days. Format: cell-based, mice. The procedure: FIG. 14. […] BM cells of leukemic mice with MLL-AF9 fusion (MA9-AML) or FLT3-ITD/NPM1^mut, and c-Kit^+ HSPCs from a pool of 6 healthy donor mice were cultured in liquid medium. […] MTS (a), apoptosis assays (b) and qPCR (c) were conducted 3 days after cell seeding or drug treatments. Error bar indicates SD of triplicate experiments.
These experiments were conducted as described previously (Jiang, X., et al., Blockade of miR-150 Maturation by MLL-Fusion/MYC/LIN-28 Is Required for MLL-Associated Leukemia, Cancer Cell 22:524-35 (2012); Li, Z., et al., miR-196b directly targets both HOXA9/MEIS1 oncogenes and FAS tumour suppressor in MLL-rearranged leukaemia, Nat Commun 2:688 (2012)) with ApoLive-Glo Multiplex Assay Kit, or CellTiter 96 AQueous Non-Radioactive Cell Proliferation Assay Kit (Promega, Madison, Wis.).
(In general: Tetrazolium assays rely on reduction of a dye to a coloured formazan, in cell work by metabolically active cells.)

Data set [2] can be described thus: Maximum tolerated dose and median lethal dose. It counts as in vivo.

Read-outs that look alike come from different tables or passages of the source.

Broadly, the LD50 is the dose at which mortality reaches 50%.

In the case of `COc1cc(C(c2cc3c(cc2O)OCO3)N2CCCC2)cc(OC)c1OC` (stereo not drawn) [NSC-370284, 6-(1-Pyrrolidinyl(3,4,5-trimethoxyphenyl)methyl)-1,3-benzodioxol-5-ol], the “inhibition of viability of NB4 cells” value with NB4 cells is given as “no significant inhibition”. Also, in the data set with global 5hmC level (300 nM, THP-1 and MONOMAC-6 cells), the “global 5hmC level” value is reported as “significantly repressed”. Further, the “global 5hmC levels” value with global 5hmC level was “significantly reduced”. Also, in the data set with FLT3-ITD/NPM1^mut AML, the median survival worked out at 34 days. Further, in data set [1], the “toxicity on normal HSPCs (viability, apoptosis)” value is given as “no obvious toxicity”. For the same compound, the LD50 in data set [2] (C57BL/6, mouse, in vivo, ip, C57BL/6, I.P., read-out: LD50) was around 123 mg/kg. In addition, the MTD in data set [2] (C57BL/6, mouse, in vivo, ip, mice, I.P., read-out: maximum tolerated dose) is 65 to 85.6 mg/kg. Besides, the “Number of Death” value in data set [2] (I.P. 65 mg/kg, 10 exposed) is given as 0; in data set [2] (I.P. 85.6 mg/kg, 10 exposed), 1; in data set [2] (I.P. 113.5 mg/kg, 10 exposed), 3; in data set [2] (I.P. 150 mg/kg, 10 exposed), 6; in data set [2] (I.P. 200 mg/kg, 10 exposed), 10.

Turning to `CC(C)(C)c1cc(C(c2cc3c(cc2O)OCO3)N2CCOCC2)cc(C(C)(C)C)c1O` (stereo not drawn) [UC-514321, 6-{[4-Hydroxy-3,5-bis(2-methyl-2-propanyl)phenyl](4-morpholinyl)methyl}-1,3-benzodioxol-5-ol], the “inhibition of viability of NB4 cells” value in the data set with NB4 cells was “no inhibitory effect”. Also, the “global 5hmC levels” value in the data set with global 5hmC level was “significantly reduced”. Moreover, in the data set on FLT3-ITD/NPM1^mut AML, the “recipients that developed full-blown AML within 50 days” value is given as “none”. For the same compound, the median survival in the data set with FLT3-ITD/NPM1^mut AML is given as above 50 days. For the same compound, the “toxicity on normal HSPCs (viability, apoptosis)” value in data set [1] is “no obvious toxicity”. Also, the MTD in data set [2] (C57BL/6, mouse, in vivo, ip) fell in the range of 65 to 85.6 mg/kg. Besides, the “Number of Death” value in data set [2] (C57BL/6, mouse, in vivo, ip, 65 mg/kg) was 0; in data set [2] (C57BL/6, mouse, in vivo, ip, 85.6 mg/kg), 1; in data set [2] (C57BL/6, mouse, in vivo, ip, 113.5 mg/kg), 2; in data set [2] (C57BL/6, mouse, in vivo, ip, 150 mg/kg) it was 7; in data set [2] (C57BL/6, mouse, in vivo, ip, 200 mg/kg), 10. The same compound displayed an LD50 in data set [2] (C57BL/6, mouse, in vivo, ip, LD50) of around 123 mg/kg.

The values are drawn from patent US11311513B2, “Methods, agents, and compositions for the treatment of acute myeloid leukemia” (UNIVERSITY OF CINCINNATI, priority 2017, dated 2022).
